# According to ChEMBL document CHEMBL4837263, “N-Aromatic-Substituted Indazole Derivatives as Brain-Penetrant and Orally Bioavailable JNK3 Inhibitors” (ACS Med Chem Lett, 2021):
# Calls of active or inactive are those of the source. No cut-off for these calls is given here.
# Key:
# [1] = molecular target: T1, Mitogen-activated protein kinase 14 (Homo sapiens, UniProt Q16539); assay: Inhibition of p38 alpha (unknown origin) using biotinylated FL-ATF-2 as substrate measured after 22 mins by homogeneous time-resolved fluorescence analysis
# T1 sequence (Q16539 whole entry): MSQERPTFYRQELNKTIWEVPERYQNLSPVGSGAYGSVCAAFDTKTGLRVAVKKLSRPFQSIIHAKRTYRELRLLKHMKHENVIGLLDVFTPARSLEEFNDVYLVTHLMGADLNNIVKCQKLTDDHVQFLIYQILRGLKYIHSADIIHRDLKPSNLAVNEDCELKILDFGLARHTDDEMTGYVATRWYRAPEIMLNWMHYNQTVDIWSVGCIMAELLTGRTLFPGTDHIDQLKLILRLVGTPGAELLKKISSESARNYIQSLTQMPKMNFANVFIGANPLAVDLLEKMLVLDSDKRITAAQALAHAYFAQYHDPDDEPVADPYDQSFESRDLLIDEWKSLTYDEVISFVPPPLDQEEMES
# [2] = Selectivity index, ratio of IC50 for p38 alpha (unknown origin) to IC50 for JNK3 (unknown origin)
# SH-SY5Y = assay: Cytotoxicity against human SH-SY5Y cells assessed as reduction in cell viability at 10 uM measured after 48 hrs by MTT assay; type: cell-based
# [3] = molecular target: T2, Mitogen-activated protein kinase 9 (Homo sapiens, UniProt P45984); assay: Inhibition of JNK2 (unknown origin) using biotinylated FL-ATF-2 as substrate measured after 22 mins by homogeneous time-resolved fluorescence analysis
# Target sequence in this assay (P45984 whole entry): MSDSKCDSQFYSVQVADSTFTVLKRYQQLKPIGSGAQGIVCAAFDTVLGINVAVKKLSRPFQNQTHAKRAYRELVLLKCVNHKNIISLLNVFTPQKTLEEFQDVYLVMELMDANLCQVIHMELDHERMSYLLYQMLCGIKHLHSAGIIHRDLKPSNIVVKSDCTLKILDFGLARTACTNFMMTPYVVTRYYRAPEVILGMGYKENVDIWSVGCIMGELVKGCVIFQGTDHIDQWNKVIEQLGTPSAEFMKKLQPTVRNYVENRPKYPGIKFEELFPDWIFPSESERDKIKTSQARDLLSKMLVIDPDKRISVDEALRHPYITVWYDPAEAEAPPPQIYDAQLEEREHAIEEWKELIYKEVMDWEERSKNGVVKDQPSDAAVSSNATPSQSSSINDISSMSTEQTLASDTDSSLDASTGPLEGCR
# [4] = molecular target: T3, Mitogen-activated protein kinase 10 (Homo sapiens, UniProt P53779); assay: Inhibition of JNK3alpha1 (unknown origin) using biotinylated FL-ATF-2 as substrate measured after 22 mins by homogeneous time-resolved fluorescence analysis
# T3 sequence (P53779 whole entry): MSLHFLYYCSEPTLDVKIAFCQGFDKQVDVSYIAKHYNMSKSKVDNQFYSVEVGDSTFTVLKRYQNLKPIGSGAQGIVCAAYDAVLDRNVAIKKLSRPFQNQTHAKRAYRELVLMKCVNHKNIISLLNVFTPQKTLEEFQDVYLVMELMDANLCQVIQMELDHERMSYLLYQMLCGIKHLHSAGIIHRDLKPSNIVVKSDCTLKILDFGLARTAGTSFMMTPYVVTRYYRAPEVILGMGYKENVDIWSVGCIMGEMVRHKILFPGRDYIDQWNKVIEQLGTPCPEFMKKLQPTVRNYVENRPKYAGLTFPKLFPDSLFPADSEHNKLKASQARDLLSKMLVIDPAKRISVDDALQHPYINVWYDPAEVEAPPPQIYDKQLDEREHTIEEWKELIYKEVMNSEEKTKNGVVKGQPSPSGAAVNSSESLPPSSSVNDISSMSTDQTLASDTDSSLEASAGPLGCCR
# CYP2D6 = CYP2D6 (Homo sapiens, UniProt P10635); assay: Inhibition of CYP2D6 (unknown origin) assessed as bufuralol hydroxylation to 4'-hydroxy bufuralol at 10 uM by cocktail inhibition assay relative to control; details: probe bufuralol (hydroxylation to 4'-hydroxy bufuralol)
# Sequence of CYP2D6 (P10635 whole entry): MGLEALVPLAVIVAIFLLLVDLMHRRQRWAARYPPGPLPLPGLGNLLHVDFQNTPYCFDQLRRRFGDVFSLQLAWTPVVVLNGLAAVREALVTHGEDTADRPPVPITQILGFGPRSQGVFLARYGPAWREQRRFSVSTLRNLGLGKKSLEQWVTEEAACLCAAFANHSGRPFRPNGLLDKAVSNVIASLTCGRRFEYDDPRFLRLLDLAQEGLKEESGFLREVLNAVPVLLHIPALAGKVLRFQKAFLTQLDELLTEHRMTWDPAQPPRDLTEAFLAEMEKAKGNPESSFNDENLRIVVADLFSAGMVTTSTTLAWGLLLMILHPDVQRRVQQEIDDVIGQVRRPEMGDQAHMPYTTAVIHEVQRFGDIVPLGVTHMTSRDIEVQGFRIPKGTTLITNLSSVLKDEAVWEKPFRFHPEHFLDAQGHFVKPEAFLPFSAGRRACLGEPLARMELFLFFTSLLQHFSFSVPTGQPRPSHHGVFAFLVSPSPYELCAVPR
# [5] = Stability in human liver microsome assessed as half life; type: ADME; details: liver microsomes
# [6] = Selectivity index, ratio of IC50 for JNK2 (unknown origin) to IC50 for JNK3 (unknown origin)
# Cytochrome P450 2C9 = Cytochrome P450 2C9 (Homo sapiens, UniProt P11712); assay: Inhibition of CYP2C9 (unknown origin) by titration method
# Sequence of Cytochrome P450 2C9 (P11712 whole entry): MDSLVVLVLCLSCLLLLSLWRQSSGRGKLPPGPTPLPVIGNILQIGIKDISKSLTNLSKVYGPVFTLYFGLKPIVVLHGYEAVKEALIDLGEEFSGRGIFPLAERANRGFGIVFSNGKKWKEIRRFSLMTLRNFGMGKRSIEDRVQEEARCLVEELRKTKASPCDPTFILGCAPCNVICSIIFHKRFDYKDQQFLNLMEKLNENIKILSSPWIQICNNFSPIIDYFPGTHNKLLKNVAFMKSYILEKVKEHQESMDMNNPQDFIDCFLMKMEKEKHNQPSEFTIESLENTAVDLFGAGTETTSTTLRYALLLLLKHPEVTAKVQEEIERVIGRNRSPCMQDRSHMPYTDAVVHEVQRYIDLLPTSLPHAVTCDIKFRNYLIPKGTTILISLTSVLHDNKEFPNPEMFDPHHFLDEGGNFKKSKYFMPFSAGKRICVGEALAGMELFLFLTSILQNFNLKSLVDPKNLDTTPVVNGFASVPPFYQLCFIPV
# [7] = molecular target: T4, Mitogen-activated protein kinase 8 (Homo sapiens, UniProt P45983); assay: Inhibition of JNK1 (unknown origin) using biotinylated FL-ATF-2 as substrate measured after 22 mins by homogeneous time-resolved fluorescence analysis
# T4 sequence (P45983 whole entry): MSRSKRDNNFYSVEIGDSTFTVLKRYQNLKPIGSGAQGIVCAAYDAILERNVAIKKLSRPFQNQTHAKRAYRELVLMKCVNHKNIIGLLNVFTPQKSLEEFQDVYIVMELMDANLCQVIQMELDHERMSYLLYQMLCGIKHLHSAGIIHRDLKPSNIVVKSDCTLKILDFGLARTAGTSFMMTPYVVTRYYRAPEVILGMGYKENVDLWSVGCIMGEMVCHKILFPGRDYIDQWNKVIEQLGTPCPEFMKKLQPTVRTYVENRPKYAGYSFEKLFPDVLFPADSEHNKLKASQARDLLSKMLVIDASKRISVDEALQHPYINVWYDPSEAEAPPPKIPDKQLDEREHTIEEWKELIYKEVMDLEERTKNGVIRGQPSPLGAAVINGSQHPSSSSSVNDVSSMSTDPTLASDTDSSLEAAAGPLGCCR
# [8] = Stability in mouse liver microsome assessed as half life; type: ADME; details: liver microsomes
# CYP3A4 = CYP3A4 (Homo sapiens, UniProt P08684); assay: Inhibition of CYP3A4 (unknown origin) assessed as midazolam hydroxylation to 1'-hydroxy midazolam at 10 uM by cocktail inhibition assay relative to control; details: probe midazolam (hydroxylation to 1'-hydroxy midazolam)
# Sequence of CYP3A4 (P08684 whole entry): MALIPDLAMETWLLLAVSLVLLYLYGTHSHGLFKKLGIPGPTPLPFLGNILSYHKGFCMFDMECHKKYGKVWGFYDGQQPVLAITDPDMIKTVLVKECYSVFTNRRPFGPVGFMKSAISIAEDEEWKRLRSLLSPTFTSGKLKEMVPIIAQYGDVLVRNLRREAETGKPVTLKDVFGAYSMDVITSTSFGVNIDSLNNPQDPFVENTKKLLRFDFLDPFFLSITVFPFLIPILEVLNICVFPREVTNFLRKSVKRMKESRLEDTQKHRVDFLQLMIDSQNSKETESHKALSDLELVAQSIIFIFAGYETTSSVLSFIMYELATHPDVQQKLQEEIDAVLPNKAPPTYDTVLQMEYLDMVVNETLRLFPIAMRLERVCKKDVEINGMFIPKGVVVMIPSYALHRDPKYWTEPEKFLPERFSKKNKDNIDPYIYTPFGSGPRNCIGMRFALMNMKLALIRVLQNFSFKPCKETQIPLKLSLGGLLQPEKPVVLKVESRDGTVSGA
# [9] = Selectivity index, ratio of IC50 for JNK1 (unknown origin) to IC50 for JNK3 (unknown origin)
# CYP1A2 = molecular target: T5, CYP1A2 (Homo sapiens, UniProt P05177); assay: Inhibition of CYP1A2 (unknown origin) assessed as phenaceten demethylation to acetaminophen at 10 uM by cocktail inhibition assay relative to control; details: probe phenacetin (demethylation to acetaminophen)
# T5 sequence (P05177 whole entry): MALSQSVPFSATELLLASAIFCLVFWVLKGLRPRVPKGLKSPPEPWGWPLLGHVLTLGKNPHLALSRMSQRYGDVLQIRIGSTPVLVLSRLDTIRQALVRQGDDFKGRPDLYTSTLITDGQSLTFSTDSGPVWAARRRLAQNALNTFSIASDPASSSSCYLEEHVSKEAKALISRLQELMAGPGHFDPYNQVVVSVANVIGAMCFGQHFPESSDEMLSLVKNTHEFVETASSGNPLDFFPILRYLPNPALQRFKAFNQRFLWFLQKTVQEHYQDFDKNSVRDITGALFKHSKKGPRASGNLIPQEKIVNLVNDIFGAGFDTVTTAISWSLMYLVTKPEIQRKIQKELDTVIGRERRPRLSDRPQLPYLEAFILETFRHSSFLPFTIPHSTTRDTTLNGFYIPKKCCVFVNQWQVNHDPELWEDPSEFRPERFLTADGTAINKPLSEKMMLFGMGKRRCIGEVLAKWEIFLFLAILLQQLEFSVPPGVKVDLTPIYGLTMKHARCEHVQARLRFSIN
# CYP2C9 = CYP2C9 (Homo sapiens, UniProt P11712); assay: Inhibition of CYP2C9 (unknown origin) assessed as tolbutamide hydroxylation to hydrocytolbutamide at 10 uM by cocktail inhibition assay relative to control; details: probe tolbutamide (hydroxylation to hydroxytolbutamide)
# Sequence of CYP2C9 (P11712 whole entry): as the sequence (P11712 whole entry) above
# [10] = molecular target: Mitogen-activated protein kinase 10 (Rattus norvegicus) (UniProt P49187); assay: Inhibition of JNK3 in rat primary neuron assessed as reduction in phosphorylation of APP at T668 residue at < 1 nM incubated for 30 mins by Western blot analysis; details: dose nM <1, time 30.0 min
# Sequence of Mitogen-activated protein kinase 10 (Rattus norvegicus) (P49187 whole entry): as the sequence (P53779 whole entry) above, with Q27H, Y32S, I33V, A34V counted along it
# [11] = molecular target: Voltage-gated inwardly rectifying potassium channel KCNH2 (Homo sapiens, UniProt Q12809); assay: Inhibition of human ERG expressed in CHO cells at -80 mV holding potential by automated Qpatch electrophysiological method
# Sequence of Voltage-gated inwardly rectifying potassium channel KCNH2 (Q12809 whole entry, the tested form may be a part): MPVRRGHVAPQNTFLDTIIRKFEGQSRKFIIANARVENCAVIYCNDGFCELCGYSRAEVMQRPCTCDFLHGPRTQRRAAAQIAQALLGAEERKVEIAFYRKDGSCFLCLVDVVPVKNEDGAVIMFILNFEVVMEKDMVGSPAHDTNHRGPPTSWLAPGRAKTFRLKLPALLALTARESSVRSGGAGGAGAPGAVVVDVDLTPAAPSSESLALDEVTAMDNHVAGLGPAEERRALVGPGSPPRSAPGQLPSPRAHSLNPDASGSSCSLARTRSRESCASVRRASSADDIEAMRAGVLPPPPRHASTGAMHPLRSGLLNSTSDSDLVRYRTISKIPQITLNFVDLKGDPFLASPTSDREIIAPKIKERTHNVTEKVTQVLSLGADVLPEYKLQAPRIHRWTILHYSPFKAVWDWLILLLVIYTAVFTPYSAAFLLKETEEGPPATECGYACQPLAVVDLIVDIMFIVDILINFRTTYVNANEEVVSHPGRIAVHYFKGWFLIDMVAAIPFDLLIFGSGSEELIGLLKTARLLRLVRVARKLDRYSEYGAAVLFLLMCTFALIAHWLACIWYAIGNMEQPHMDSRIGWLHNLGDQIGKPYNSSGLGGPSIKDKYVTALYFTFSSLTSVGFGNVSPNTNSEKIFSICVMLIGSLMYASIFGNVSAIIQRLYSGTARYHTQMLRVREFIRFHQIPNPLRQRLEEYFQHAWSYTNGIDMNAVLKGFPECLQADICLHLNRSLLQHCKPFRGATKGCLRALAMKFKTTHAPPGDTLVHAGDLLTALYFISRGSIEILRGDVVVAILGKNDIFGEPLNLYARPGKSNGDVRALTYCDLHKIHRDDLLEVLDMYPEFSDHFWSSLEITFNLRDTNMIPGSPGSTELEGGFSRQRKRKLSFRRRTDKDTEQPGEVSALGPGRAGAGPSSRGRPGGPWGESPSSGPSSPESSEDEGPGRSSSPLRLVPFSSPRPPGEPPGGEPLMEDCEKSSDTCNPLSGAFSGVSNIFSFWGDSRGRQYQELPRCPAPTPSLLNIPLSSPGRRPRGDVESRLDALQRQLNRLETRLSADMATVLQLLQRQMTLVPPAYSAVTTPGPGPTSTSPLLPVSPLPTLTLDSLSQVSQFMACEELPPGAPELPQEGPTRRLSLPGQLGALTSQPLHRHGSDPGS
# [12] = molecular target: T6, Epithelial discoidin domain-containing receptor 1 (Homo sapiens, UniProt Q08345); assay: Inhibition of human DDR1 using KKSRGDYMTMQIG as substrate by [gamma-33P]-ATP assay
# [13] = molecular target: T7, Casein kinase I isoform epsilon (Homo sapiens, UniProt P49674); assay: Inhibition of human CK1E at 1 uM using KRRRAL[pS]VASLPGL as substrate by [gamma-33P]-ATP assay relative to control
# [14] = molecular target: T2, Mitogen-activated protein kinase 9; assay: Inhibition of human JNK2 at 1 uM using ATF2 as substrate by [gamma-33P]-ATP assay relative to control
# [15] = molecular target: T6, Epithelial discoidin domain-containing receptor 1; assay: Inhibition of human DDR1 at 1 uM using KKSRGDYMTMQIG as substrate by [gamma-33P]-ATP assay relative to control
# [16] = molecular target: T7, Casein kinase I isoform epsilon; assay: Inhibition of human CK1E using KRRRAL[pS]VASLPGL as substrate by [gamma-33P]-ATP assay
# [17] = molecular target: T4, Mitogen-activated protein kinase 8; assay: Inhibition of human JNK1 using ATF2 as substrate by [gamma-33P]-ATP assay; details: dose 1.0 µM
# [18] = Drug concentration in C57BL/6J mouse plasma at 30 mg/kg, po measured after 2 hrs by LC-MS/MS analysis; type: ADME, organism-based
# [19] = Drug concentration in C57BL/6J mouse brain at 30 mg/kg, po measured after 2 hrs by LC-MS/MS analysis; type: ADME, organism-based; details: read-out: Ct
# [20] = molecular target: Protein-tyrosine kinase 6 (Homo sapiens) (UniProt Q13882); assay: Inhibition of human BRK at 1 uM using poly[Glu:Tyr](4:1) as substrate by [gamma-33P]-ATP assay relative to control
# [21] = molecular target: T1, Mitogen-activated protein kinase 14; assay: Inhibition of human p38alpha at 1 uM using MBP as substrate by [gamma-33P]-ATP assay relative to control
# [22] = molecular target: T3, Mitogen-activated protein kinase 10; assay: Inhibition of human JNK3 at 1 uM using ATF2 as substrate by [gamma-33P]-ATP assay relative to control
Structure (SMILES),IC50 [1] [nM],Ratio IC50 [2],Cell viability (SH-SY5Y) [%],IC50 [3] [nM],IC50 [4] [nM],inhibition at 10 µM (CYP2D6) [%],half-life [5] [min],Ratio IC50 [6],IC50 [7] [nM],half-life [8] [min],inhibition at 10 µM (CYP3A4) [%],Ratio IC50 [9],inhibition at 10 µM (CYP1A2) [%],inhibition at 10 µM (CYP2C9) [%],IC50 [11] [nM],also measured
O=C(NC1COC1)c1cc(-n2ncc3cc(Nc4ccccc4Cl)cnc32)cs1,260,43,103,256,6,15,21,43,940,9,14,157,19,76,–,IC50 (Cytochrome P450 2C9): 4000 nM
O=C(NC1COC1)c1cc(-n2ncc3cc(Nc4ccccc4Cl)c(F)cc32)cs1,400,29,98,1330,14,-16,92,95,1050,20,-56,75,4,41,–,–
CNC(=O)c1cc(-n2ncc3cc(Nc4c(F)cccc4Cl)c(F)cc32)cs1,24,12,–,29,2,–,–,15,258,–,–,129,–,–,–,–
CNC(=O)c1cc(-n2ncc3cc(Nc4c(F)cccc4Cl)ncc32)cs1,57,28,–,74,2,–,–,37,260,–,–,130,–,–,–,–
CNC(=O)c1cc(-n2ncc3cc(Nc4ccccc4Cl)c(F)cc32)cs1,100,20,83,93,5,-4,37,18,619,42,-13,124,21,39,> 30000,inhibition [10]: Active
CNC(=O)c1cc(-n2ncc3cc(Nc4ccccc4Cl)cnc32)cs1,481,20,119,414,24,30,15,17,4730,14,57,197,30,66,> 100000,IC50 (Cytochrome P450 2C9): 4000 nM
[2H]C([2H])([2H])N1CC[C@H](NC(=O)c2cc(-n3ncc4cc(Nc5ccccc5Cl)ccc43)cs2)C1,226,–,–,–,1,–,–,–,263,–,–,–,–,–,< 1000,–
[2H]C([2H])([2H])N1CC[C@H](NC(=O)c2cc(-n3ncc4cc(Nc5ccccc5Cl)c(F)cc43)cs2)C1,300,–,–,–,5,–,–,–,285,–,–,–,–,–,< 1000,–
CNC(=O)c1cc(-n2ncc3cc(Nc4c(F)cccc4Cl)c(C)nc32)cs1,380,31,109,140,12,19,26,11,872,17,-2,73,43,61,> 30000,–
Cc1nc2c(cnn2-c2csc(C(=O)NC3COC3)c2)cc1Nc1c(F)cccc1Cl,–,–,116,74,–,–,92,–,–,77,–,–,–,–,–,inhibition [10]: Active; IC50 [12]: 247 nM; inhibition [13]: 78%; inhibition [14]: 81%; inhibition [15]: 73%; IC50 [16]: 100 nM; inhibition [17]: 30%; concentration at 2 h [18]: 5.9 µM; concentration at 2 h [19]: 3.3 µM; inhibition [20]: 55%; inhibition [21]: 75%; inhibition [22]: 89%
O=C(Nc1cnn(-c2csc(C(=O)NC3COC3)c2)c1)Nc1ccccc1Cl,> 20000,–,104,–,–,–,–,–,–,–,–,–,–,–,> 30000,–
